According to US20170190671A1, “BIS(ARYL)CATECHOL DERIVATIVES AS HERBICIDES” (E I DU PONT DE NEMOURS AND COMPANY, priority 2014, published 2017):

What was measured:
Type in all cases: in vivo
[1] = system: giant foxtail (Setaria faberii); experiment: Test C preemergence; details: Setaria faberi, pre-emergence, 336 h, preemergence, scale 0 to 100, read-out: Plant response rating, Foxtail, Giant
In short: (§1)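 Treatment is preemergence to seeds in a loam and sand soil, or postemergence to plants 2 to 18 cm high in a peat moss-based medium. The compound is delivered in a non-phytotoxic solvent mixture including surfactant. Effects are judged by eye 13 to 15 days later on a 0 to 100 scale.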

[2] = system: large (Lg) crabgrass (Digitaria sanguinalis); experiment: Test C preemergence; details: Digitaria sanguinalis, pre-emergence, 336 h, preemergence, scale 0 to 100, read-out: Plant response rating, Crabgrass, Large
In short: as §1

[3] = system: oilseed rape (Brassica napus); experiment: Test C preemergence; details: Brassica napus, pre-emergence, preemergence, scale 0 to 100, read-out: Plant response rating, Oilseed Rape
In short: as §1

[4] = system: winter wheat (Triticum aestivum); experiment: Test C preemergence; details: Triticum aestivum, pre-emergence, 336 h, preemergence, scale 0 to 100, read-out: Plant response rating, Wheat
In short: as §1

[5] = system: Italian ryegrass (Lolium multiflorum); experiment: Test C postemergence; details: Lolium multiflorum, post-emergence, 336 h, Postemergence, scale 0 to 100, read-out: Plant response rating, Ryegrass, Italian
In short: as §1

[6] = system: barnyardgrass (Echinochloa crus-galli); experiment: Test C postemergence; details: Echinochloa crus-galli, post-emergence, Postemergence, scale 0 to 100, read-out: Plant response rating, Barnyardgrass
In short: as §1

[7] = system: blackgrass (Alopecurus myosuroides); experiment: Test C postemergence; details: Alopecurus myosuroides, post-emergence, 336 h, Postemergence, scale 0 to 100, read-out: Plant response rating, Blackgrass
In short: as §1

[8] = system: chickweed (common chickweed, Stellaria media); experiment: Test C postemergence; details: Stellaria media, post-emergence, Postemergence, scale 0 to 100, read-out: Plant response rating, Chickweed
In short: as §1

corn (Zea mays) = experiment: Test C postemergence; details: Zea mays, post-emergence, 336 h, Postemergence, scale 0 to 100
In short: as §1

[9] = system: galium (catchweed bedstraw, Galium aparine); experiment: Test C postemergence; details: Galium, post-emergence, 336 h, Postemergence, scale 0 to 100, read-out: Plant response rating, Galium
In short: as §1

[10] = system: giant foxtail (Setaria faberii); experiment: Test C postemergence; details: Setaria faberi, post-emergence, 336 h, Postemergence, scale 0 to 100, read-out: Plant response rating, Foxtail, Giant
In short: as §1

[11] = system: johnsongrass (Sorghum halepense); experiment: Test C postemergence; details: Sorghum halepense, post-emergence, 336 h, Postemergence, scale 0 to 100, read-out: Plant response rating, Johnsongrass
In short: as §1

[12] = system: lambsquarters (Chenopodium album); experiment: Test C postemergence; details: Chenopodium album, post-emergence, 336 h, Postemergence, scale 0 to 100, read-out: Plant response rating, Lambsquarters
In short: as §1

[13] = system: large (Lg) crabgrass (Digitaria sanguinalis); experiment: Test C postemergence; details: Digitaria sanguinalis, post-emergence, 336 h, Postemergence, scale 0 to 100, read-out: Plant response rating, Crabgrass, Large
In short: as §1

[14] = system: morningglory (Ipomoea coccinea); experiment: Test C postemergence; details: Ipomoea, post-emergence, 336 h, Postemergence, scale 0 to 100, read-out: Plant response rating, Morningglory
In short: as §1

[15] = system: oilseed rape (Brassica napus); experiment: Test C postemergence; details: Brassica napus, post-emergence, Postemergence, scale 0 to 100, read-out: Plant response rating, Oilseed Rape
In short: as §1

[16] = system: pigweed (Amaranthus retroflexus); experiment: Test C postemergence; details: Amaranthus retroflexus, post-emergence, 336 h, Postemergence, scale 0 to 100, read-out: Plant response rating, Pigweed
In short: as §1

[17] = system: ragweed (common ragweed, Ambrosia elatior); experiment: Test C postemergence; details: Ambrosia artemisiifolia, post-emergence, 336 h, Postemergence, scale 0 to 100, read-out: Plant response rating, Ragweed
In short: as §1

soybean (Glycine max) = experiment: Test C postemergence; details: Glycine max, post-emergence, Postemergence, scale 0 to 100, read-out: Plant response rating, Soybean
In short: as §1

[18] = system: velvetleaf (Abutilon theophrasti); experiment: Test C postemergence; details: Abutilon theophrasti, post-emergence, Postemergence, scale 0 to 100, read-out: Plant response rating, Velvetleaf
In short: as §1

[19] = system: winter wheat (Triticum aestivum); experiment: Test C postemergence; details: Triticum aestivum, post-emergence, 336 h, Postemergence, scale 0 to 100, read-out: Plant response rating, Wheat
In short: as §1

[20] = system: yellow nutsedge (Cyperus esculentus); experiment: Test C postemergence; details: Cyperus, post-emergence, 336 h, Postemergence, scale 0 to 100, read-out: Plant response rating, Nutsedge, Yellow
In short: as §1

Fc1cnc(Oc2c(F)cccc2Oc2ncc(Cl)cn2)nc1 [Compound 23]
pest or weed control at 31 g/ha ([1]; 31 g ai/ha): 95%
pest or weed control at 62 g/ha ([1]; 62 g ai/ha): 98%
pest or weed control at 125 g/ha ([1]; 125 g ai/ha): 100%
pest or weed control at 31 g/ha ([2]; 31 g ai/ha): 100%
pest or weed control at 62 g/ha ([2]; 62 g ai/ha): 100%
pest or weed control at 125 g/ha ([2]; 125 g ai/ha): 100%
plant injury at 31 g/ha ([3]; 31 g ai/ha): 100%
plant injury at 62 g/ha ([3]; 62 g ai/ha): 100%
plant injury at 125 g/ha ([3]; 125 g ai/ha): 100%
plant injury at 250 g/ha ([3]; 250 g ai/ha): 100%
plant injury at 31 g/ha ([4]; 31 g ai/ha): 5%
plant injury at 62 g/ha ([4]; 62 g ai/ha): 40%
plant injury at 125 g/ha ([4]; 125 g ai/ha): 50%
plant injury at 250 g/ha ([4]; 250 g ai/ha): 90%
pest or weed control at 31 g/ha ([5]; 31 g ai/ha): 0%
pest or weed control at 62 g/ha ([5]; 62 g ai/ha): 0%
pest or weed control at 125 g/ha ([5]; 125 g ai/ha): 0%
pest or weed control at 250 g/ha ([5]; 250 g ai/ha): 35%
pest or weed control at 31 g/ha ([6]; 31 g ai/ha): 5%
pest or weed control at 62 g/ha ([6]; 62 g ai/ha): 10%
pest or weed control at 125 g/ha ([6]; 125 g ai/ha): 10%
pest or weed control at 250 g/ha ([6]; 250 g ai/ha): 25%
pest or weed control at 31 g/ha ([7]; 31 g ai/ha): 0%
pest or weed control at 62 g/ha ([7]; 62 g ai/ha): 5%
pest or weed control at 125 g/ha ([7]; 125 g ai/ha): 5%
pest or weed control at 250 g/ha ([7]; 250 g ai/ha): 30%
pest or weed control at 31 g/ha ([8]; 31 g ai/ha): 50%
pest or weed control at 62 g/ha ([8]; 62 g ai/ha): 50%
pest or weed control at 125 g/ha ([8]; 125 g ai/ha): 60%
pest or weed control at 250 g/ha ([8]; 250 g ai/ha): 60%
Corn plant response rating (crop injury, 0 = no effect, 100 = complete kill) at 31 g/ha (corn (Zea mays); 31 g ai/ha): 5%
Corn plant response rating (crop injury, 0 = no effect, 100 = complete kill) at 62 g/ha (corn (Zea mays); 62 g ai/ha): 5%
Corn plant response rating (crop injury, 0 = no effect, 100 = complete kill) at 125 g/ha (corn (Zea mays); 125 g ai/ha): 10%
Corn plant response rating (crop injury, 0 = no effect, 100 = complete kill) at 250 g/ha (corn (Zea mays); 250 g ai/ha): 10%
pest or weed control at 31 g/ha ([9]; 31 g ai/ha): 70%
pest or weed control at 62 g/ha ([9]; 62 g ai/ha): 90%
pest or weed control at 125 g/ha ([9]; 125 g ai/ha): 95%
pest or weed control at 250 g/ha ([9]; 250 g ai/ha): 95%
pest or weed control at 31 g/ha ([10]; 31 g ai/ha): 0%
pest or weed control at 62 g/ha ([10]; 62 g ai/ha): 5%
pest or weed control at 125 g/ha ([10]; 125 g ai/ha): 10%
pest or weed control at 250 g/ha ([10]; 250 g ai/ha): 35%
pest or weed control at 31 g/ha ([11]; 31 g ai/ha): 0%
pest or weed control at 62 g/ha ([11]; 62 g ai/ha): 0%
pest or weed control at 125 g/ha ([11]; 125 g ai/ha): 5%
pest or weed control at 250 g/ha ([11]; 250 g ai/ha): 5%
pest or weed control at 31 g/ha ([12]; 31 g ai/ha): 70%
pest or weed control at 62 g/ha ([12]; 62 g ai/ha): 80%
pest or weed control at 125 g/ha ([12]; 125 g ai/ha): 90%
pest or weed control at 250 g/ha ([12]; 250 g ai/ha): 95%
pest or weed control at 31 g/ha ([13]; 31 g ai/ha): 5%
pest or weed control at 62 g/ha ([13]; 62 g ai/ha): 5%
pest or weed control at 125 g/ha ([13]; 125 g ai/ha): 10%
pest or weed control at 250 g/ha ([13]; 250 g ai/ha): 30%
pest or weed control at 31 g/ha ([14]; 31 g ai/ha): 60%
pest or weed control at 62 g/ha ([14]; 62 g ai/ha): 75%
pest or weed control at 125 g/ha ([14]; 125 g ai/ha): 85%
pest or weed control at 250 g/ha ([14]; 250 g ai/ha): 95%
plant injury at 31 g/ha ([15]; 31 g ai/ha): 10%
plant injury at 62 g/ha ([15]; 62 g ai/ha): 30%
plant injury at 125 g/ha ([15]; 125 g ai/ha): 50%
plant injury at 250 g/ha ([15]; 250 g ai/ha): 45%
pest or weed control at 31 g/ha ([16]; 31 g ai/ha): 70%
pest or weed control at 62 g/ha ([16]; 62 g ai/ha): 80%
pest or weed control at 125 g/ha ([16]; 125 g ai/ha): 95%
pest or weed control at 250 g/ha ([16]; 250 g ai/ha): 100%
pest or weed control at 31 g/ha ([17]; 31 g ai/ha): 60%
pest or weed control at 62 g/ha ([17]; 62 g ai/ha): 70%
pest or weed control at 125 g/ha ([17]; 125 g ai/ha): 75%
pest or weed control at 250 g/ha ([17]; 250 g ai/ha): 100%
plant injury at 31 g/ha (soybean (Glycine max); 31 g ai/ha): 70%
plant injury at 62 g/ha (soybean (Glycine max); 62 g ai/ha): 65%
plant injury at 125 g/ha (soybean (Glycine max); 125 g ai/ha): 90%
plant injury at 250 g/ha (soybean (Glycine max); 250 g ai/ha): 95%
pest or weed control at 31 g/ha ([18]; 31 g ai/ha): 70%
pest or weed control at 62 g/ha ([18]; 62 g ai/ha): 70%
pest or weed control at 125 g/ha ([18]; 125 g ai/ha): 75%
pest or weed control at 250 g/ha ([18]; 250 g ai/ha): 90%
plant injury at 31 g/ha ([19]; 31 g ai/ha): 0%
plant injury at 62 g/ha ([19]; 62 g ai/ha): 0%
plant injury at 125 g/ha ([19]; 125 g ai/ha): 0%
plant injury at 250 g/ha ([19]; 250 g ai/ha): 5%
pest or weed control at 31 g/ha ([20]; 31 g ai/ha): 0%
pest or weed control at 62 g/ha ([20]; 62 g ai/ha): 0%
pest or weed control at 125 g/ha ([20]; 125 g ai/ha): 5%
pest or weed control at 250 g/ha ([20]; 250 g ai/ha): 5%
